Experiment [1] concerns HeLa. Description: Induction of autophagosome accumulation in human HeLa cells harboring RFP-GFP-LC3 assessed as increase in p62 level after 24 hrs by immunoblot method. The experiment is classed as functional, cell-based.
The test system of experiment [2] is HeLa. Description: Induction of autophagosome accumulation in human HeLa cells harboring RFP-GFP-LC3 assessed as GFP-LC3 puncta formation at 30 uM after 24 hrs by DAPI staining based fluorescence microscopic method. The experiment is classed as functional, cell-based.
Experiment [3] concerns HeLa. Put plainly: Induction of autophagosome accumulation in human HeLa cells harboring RFP-GFP-LC3 assessed as increase in LC3-2 level after 24 hrs by immunoblot method. The experiment is classed as functional, cell-based.
Experiment [4] concerns the target T1, Indoleamine 2,3-dioxygenase 1 (Homo sapiens, UniProt P14902). Put plainly: Inhibition of ascorbic acid/methylene blue activated recombinant human IDO expressed in Escherichia coli up to 10 uM using L-Tryptophan as substrate after 60 mins by spectrophotometric method relative to control.
Target sequence in this assay (P14902 whole entry, looked up): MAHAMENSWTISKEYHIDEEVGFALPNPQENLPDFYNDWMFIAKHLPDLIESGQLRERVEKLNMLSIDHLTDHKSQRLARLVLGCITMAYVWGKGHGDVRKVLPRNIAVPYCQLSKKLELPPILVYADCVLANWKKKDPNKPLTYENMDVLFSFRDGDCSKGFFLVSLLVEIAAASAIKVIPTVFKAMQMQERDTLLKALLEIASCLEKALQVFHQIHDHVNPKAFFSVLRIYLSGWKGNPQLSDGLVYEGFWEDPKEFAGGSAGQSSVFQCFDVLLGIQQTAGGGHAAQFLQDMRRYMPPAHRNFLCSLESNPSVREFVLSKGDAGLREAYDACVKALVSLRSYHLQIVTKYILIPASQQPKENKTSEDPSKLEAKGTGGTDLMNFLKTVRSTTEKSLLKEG
Experiment [5] relates to U2OS. Put plainly: Antiproliferative activity against human U2OS cells after 48 hrs by MTT assay. In kind it is functional, cell-based. In general terms: Tetrazolium assays rely on reduction of a dye to a coloured formazan, in cell work by metabolically active cells.
For experiment [6], the system named is HeLa. Put plainly: Antiproliferative activity against human HeLa cells after 48 hrs by MTT assay. The experiment is classed as functional, cell-based.
The test system of experiment [7] is SW480. Description: Antiproliferative activity against human SW480 cells after 48 hrs by MTT assay. In kind it is functional, cell-based. Particulars: SW480, 48 h.
Experiment [8] deals with HL-60. Description: Antiproliferative activity against human HL60 cells after 48 hrs by EZ-Cytox cell viability assay. In kind it is functional, cell-based. The settings on record: HL-60, 48 h.
Experiment [9] deals with MDA-MB-231. Description: Antiproliferative activity against human MDA-MB-231 cells after 48 hrs by MTT assay. In kind it is functional, cell-based. Particulars: MDA-MB-231, 48 h.
Experiment [10] addresses T1, Indoleamine 2,3-dioxygenase 1. Description: Inhibition of ascorbic acid/methylene blue activated recombinant human IDO expressed in Escherichia coli using L-Tryptophan as substrate after 60 mins by spectrophotometric method.
Target sequence in this assay (P14902 whole entry): as the sequence (P14902 whole entry, looked up) above

pIC50: −log10 of the molar value. Activity calls are given as the source filed them. The calls are words filed in the database; no cut-off is given here. Where only a bound is given, the exact number is not on record here.

What is called inhibition is the share of the control response that was lost under treatment. As a reminder, the pIC50 is the IC50 on a negative log10 scale, so that one unit is a factor of ten.

Regarding `C/C=C(\C)[C@H](O)[C@H](C)/C=C(C)/C=C/C/C(C)=C/Cc1nc(OC)c(OC)c(O)c1C` [PIERICIDIN A], the Activity entry in experiment [1] and in experiment [3] was “Dose-dependent effect” each time. The outcome in [2] was Active. Moreover, the inhibition in [4] was below 50%. The pIC50 is 4.04 in experiment [5]; 4.07 in [6]; 4.09 in experiment [7]; 4.09 in experiment [8]; below 4.00 in [9].
Consider `C/C1=C/C=C\C=C\[C@H](C)[C@@H](O)CC(=O)/C(C)=C/C[C@H](O)/C=C/[C@H](C)[C@H](O)[C@@H](C)/C=C(\C)C(=O)c2c(O)c(C)cc3c2C(=O)C(Cl)=C(NC1=O)C3=O` [NAPHTHOMYCIN A], for which the pIC50 in experiment [10] was 6.36; in experiment [5], 4.69; in experiment [6], 4.52; in experiment [7], 5.12; in experiment [8], 5.68; in experiment [9], 4.46.
Regarding `C/C=C(\C)[C@H](O)[C@H](C)/C=C(C)/C=C/C/C(C)=C/Cc1nc(OC)c(OC)c(O[C@@H]2O[C@@H](C)[C@@H](O)[C@@H](O)[C@H]2O)c1C`, the Activity result in [1] and in experiment [3] was “Dose-dependent effect” throughout. Besides, the outcome in experiment [2] was Active. In addition, the inhibition in [4] was below 50%. Besides, the pIC50 in experiment [5] was 4.53; in experiment [6], 4.56; in experiment [7] it was 4.64; in [8], 4.61; in experiment [9], 4.45.
For the compound `CC(=O)NC1=CC(=O)c2cc(O[C@@H]3O[C@@H](C)[C@@H](O)[C@@H](O)[C@H]3O)c(C)cc2C1=O`, the pIC50 in [10] was 6.25; in experiment [5], 4.47; in experiment [6] it was 4.46; in [7], 5.03; in [8], 5.15; in experiment [9] it was 4.14.
Turning to `C/C(=C\[C@H](C)[C@@H](O)[C@@H](C)/C=C/[C@@H](O)C/C=C(\C)C(=O)C[C@H](O)[C@@H](C)/C=C/C=C\C=C/C(=O)Nc1c(Cl)c(O[C@@H]2O[C@@H](C)[C@@H](O)[C@@H](O)[C@H]2O)c2cc(O)c(C)cc2c1O)C(=O)O`, the inhibition in experiment [4] is below 50%. The pIC50 in experiment [5] was below 4.00; in experiment [6], below 4.00; in experiment [7] it was 4.03; in [8], 4.04; in experiment [9], below 4.00.
In the case of `C/C(=C\[C@H](C)[C@@H](O)[C@@H](C)/C=C/[C@@H](O)C/C=C(\C)C(=O)C[C@H](O)[C@@H](C)/C=C/C=C\C=C/C(=O)NC1=C(Cl)C(=O)c2cc(O)c(C)cc2C1=O)C(=O)O`, the negative-log IC50 (pIC50) was below 4.00 in experiment [5]; 4.15 in experiment [6]; 4.11 in experiment [7]; 4.37 in experiment [8]; below 4.00 in experiment [9].
Consider `CNc1ccccc1C(=O)O[C@@H]1O[C@@H](C)[C@@H](O)[C@@H](O)[C@H]1O`, for which the inhibition in [4] was below 50%. Moreover, the pIC50 in experiment [5], in [6], in [7], in experiment [8] and in [9] was below 4.00 in each case.
On to `CC1=CC(=O)c2ccccc2C1=O` [MENADIONE], for which, in experiment [10], the pIC50 is 6.43.
Take `COc1cccc2c1C(=O)c1c(O)c3c(c(O)c1C2=O)C[C@@](O)(C(=O)CO)C[C@@H]3O[C@H]1C[C@H](N)[C@H](O)[C@H](C)O1` [DOXORUBICIN]: the pIC50 is 6.25 in [5]; 6.22 in [6]; 6.39 in experiment [7]; 6.27 in experiment [8]; 6.43 in experiment [9].

The record behind these values is ChEMBL document CHEMBL4118030, “Polyketides and Anthranilic Acid Possessing 6-Deoxy-α-l-talopyranose from a Streptomyces Species” (J Nat Prod, 2017).
